Among the data in US10246426B2, “Triazole compounds as T-type calcium channel blockers” (IDORSIA PHARMACEUTICALS LTD, priority 2014, dated 2019) are IC50 values, retold here.

pIC50: −log10 of the molar value.

Chain of Cav3.2 (O95180 whole entry, looked up): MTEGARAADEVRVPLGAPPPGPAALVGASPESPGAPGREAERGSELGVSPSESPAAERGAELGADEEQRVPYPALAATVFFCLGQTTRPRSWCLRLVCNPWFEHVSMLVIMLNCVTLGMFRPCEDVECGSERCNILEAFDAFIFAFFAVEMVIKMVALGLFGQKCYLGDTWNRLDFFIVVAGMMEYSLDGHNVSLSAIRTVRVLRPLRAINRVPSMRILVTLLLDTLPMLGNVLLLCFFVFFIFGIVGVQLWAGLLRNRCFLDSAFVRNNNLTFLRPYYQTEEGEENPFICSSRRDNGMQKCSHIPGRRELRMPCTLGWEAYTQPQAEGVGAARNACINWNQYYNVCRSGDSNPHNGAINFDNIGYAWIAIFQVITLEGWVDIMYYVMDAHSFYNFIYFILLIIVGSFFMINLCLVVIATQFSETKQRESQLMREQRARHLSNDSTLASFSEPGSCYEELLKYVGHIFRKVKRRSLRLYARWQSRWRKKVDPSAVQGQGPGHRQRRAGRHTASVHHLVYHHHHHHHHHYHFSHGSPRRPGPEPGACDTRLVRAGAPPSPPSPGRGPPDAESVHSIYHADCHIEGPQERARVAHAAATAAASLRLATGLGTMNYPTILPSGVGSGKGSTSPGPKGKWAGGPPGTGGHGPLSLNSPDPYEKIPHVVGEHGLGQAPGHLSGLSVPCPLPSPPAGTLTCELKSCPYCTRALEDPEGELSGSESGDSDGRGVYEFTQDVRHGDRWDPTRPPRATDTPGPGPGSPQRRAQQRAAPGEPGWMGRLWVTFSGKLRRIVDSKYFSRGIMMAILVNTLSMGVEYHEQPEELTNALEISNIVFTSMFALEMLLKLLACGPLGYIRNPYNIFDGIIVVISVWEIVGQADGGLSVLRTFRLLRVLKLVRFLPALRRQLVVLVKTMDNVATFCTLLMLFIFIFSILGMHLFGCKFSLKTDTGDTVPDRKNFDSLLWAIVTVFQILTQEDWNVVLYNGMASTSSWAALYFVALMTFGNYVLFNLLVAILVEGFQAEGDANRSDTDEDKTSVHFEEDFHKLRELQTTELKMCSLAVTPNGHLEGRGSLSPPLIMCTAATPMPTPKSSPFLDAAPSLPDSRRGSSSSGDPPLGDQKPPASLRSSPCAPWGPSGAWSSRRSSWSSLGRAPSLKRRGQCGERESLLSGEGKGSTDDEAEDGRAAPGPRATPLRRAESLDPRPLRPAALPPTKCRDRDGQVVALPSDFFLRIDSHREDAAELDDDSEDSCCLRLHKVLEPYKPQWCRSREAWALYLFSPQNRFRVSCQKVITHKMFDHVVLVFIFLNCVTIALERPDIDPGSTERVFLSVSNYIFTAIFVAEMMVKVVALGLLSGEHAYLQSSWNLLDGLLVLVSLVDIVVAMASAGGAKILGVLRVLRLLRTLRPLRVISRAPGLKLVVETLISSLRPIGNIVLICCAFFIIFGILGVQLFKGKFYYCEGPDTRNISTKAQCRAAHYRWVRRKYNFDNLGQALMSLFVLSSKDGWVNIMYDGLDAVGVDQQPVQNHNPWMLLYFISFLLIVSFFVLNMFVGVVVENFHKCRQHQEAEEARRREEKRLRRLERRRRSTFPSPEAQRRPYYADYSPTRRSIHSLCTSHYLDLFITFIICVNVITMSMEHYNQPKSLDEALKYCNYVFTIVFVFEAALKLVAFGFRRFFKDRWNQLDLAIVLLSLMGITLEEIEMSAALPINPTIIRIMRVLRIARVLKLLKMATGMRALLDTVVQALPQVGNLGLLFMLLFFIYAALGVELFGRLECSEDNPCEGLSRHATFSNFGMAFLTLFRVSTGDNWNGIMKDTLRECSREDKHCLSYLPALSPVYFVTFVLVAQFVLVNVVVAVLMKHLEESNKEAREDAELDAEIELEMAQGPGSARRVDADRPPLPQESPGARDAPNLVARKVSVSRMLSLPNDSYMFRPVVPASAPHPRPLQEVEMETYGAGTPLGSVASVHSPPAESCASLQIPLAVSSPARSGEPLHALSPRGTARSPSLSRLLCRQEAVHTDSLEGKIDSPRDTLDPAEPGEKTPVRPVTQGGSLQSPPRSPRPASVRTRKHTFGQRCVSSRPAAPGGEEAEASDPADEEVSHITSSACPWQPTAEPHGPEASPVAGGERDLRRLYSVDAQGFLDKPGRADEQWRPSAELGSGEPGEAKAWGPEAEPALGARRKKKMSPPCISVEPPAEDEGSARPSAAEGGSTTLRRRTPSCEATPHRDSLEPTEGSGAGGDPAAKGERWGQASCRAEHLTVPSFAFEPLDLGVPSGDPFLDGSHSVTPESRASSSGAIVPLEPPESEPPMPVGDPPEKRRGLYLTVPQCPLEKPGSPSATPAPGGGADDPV

The target of this test is Cav3.2 (Homo sapiens, UniProt O95180). Put plainly: Calcium flux FLIPR assay, HEK293 cells recombinantly expressing Cav3.2. The conditions noted are these: Cav3.2-channel, Ca2+ entry stimulated by 10 mM CaCl2. In kind it is cell-based. Here is the method:
In Vitro Methods—Measurement of Calcium Channel Flux by Means of FLIPR Assays.
HEK293 cells recombinantly expressing either voltage-dependent T-type calcium channel subunit […] (Cav3.2) or voltage-dependent L-type calcium channel subunit alpha-1C (Cav1.2) are assayed for calcium flux using the calcium indicator dye Fluo-4-AM (Molecular Devices) and FLIPR technology (Fluorometric Imaging Plate Reader, Molecular Devices) (Xie X, Van Deusen A L, Vitko I, Babu D A, Davies L A, Huynh N, Cheng H, Yang N, Barrett P Q, Perez-Reyes E. Validation of high throughput screening assays against three subtypes of Ca(v)3 T-type channels using molecular and pharmacologic approaches. Assay and Drug Development Technologies 2007, 5(2), 191-203). The HEK293 cells recombinantly expressing Cav3.2 are maintained in DMEM growth medium (Life Technologies) supplemented with 10% Fetal Bovine Serum (FBS), 100 U/ml penicilin (Life Technologies), 100 μg/ml streptomycin (Life Technologies) and 1 mg/ml G418 (Life Technologies). HEK293 cells recombinantly expressing Cav1.2 are maintained in DMEM growth medium (Life technologies) supplemented with 10% FBS, 0.1 mg/ml G418 (Life Technologies), 0.1 mg/ml hygromycin (Life Technologies) and 40 ug/ml zeocin (Life Technologies).
Cells are washed once with PBS, then dissociated in 0.25% trypsin/EDTA (Life Technologies) and seeded into poly-D-lysine coated 384-well black, clear bottom plates (BD Biosciences) at a density of 30,000 cells/well. The seeded plates are incubated overnight at 37° C.
Immediately prior to performing the assay, medium is removed and cells are treated for 1 hour at 37° C. with loading buffer containing HBSS 1× (137 mM NaCl; 5.4 mM KCl; 0.25 mM Na2HPO4; 1.3 mM CaCl2; 0.4 mM MgSO04; 0.5 mM MgCl2; 0.4 mM KH2PO4, pH 7.4), 0.375 g/L NaHCO3, 20 mM Hepes, supplemented with 3 μM Fluo-4-AM and 0.15% Pluronic (Life Technologies). The cells are then washed three times with assay buffer (HBSS 1×; 0.375 g/L NaHCO3; 20 mM Hepes; 1% FBS; pH 7.4) and allowed to rest in 50 μl of wash buffer for 30 minutes.
Stock solutions of test compounds are prepared to a concentration of 10 mM in DMSO. For the Cav3.2 assay, serial dilutions of the compounds are prepared in TEAC buffer (100 mM tetraethylammonium chloride; 20 mM Hepes; 2.5 mM CaCl2; 5 mM KCl; 1 mM MgCl2; 1% FBS; pH 7.2), for the Cav1.2 assay serial dilutions are prepared in assay buffer. […] The compounds are incubated with the cells for 3 minutes and Ca2+ entry is stimulated by adding either CaCl2 to a final concentration of 10 mM (Cav3.2 assay) or by adding KCl to a final concentration of 20 mM (Cav1.2 assay). The kinetics of fluorescence increase are recorded for every well and the area under the fluorescence trace for every compound concentration is used to generate inhibition curves using non-linear regression sigmoidal concentration-response curve analysis with in-house software. IC50 values are calculated and represent the compound concentration required to inhibit 50% of the signal that is obtained in the presence of vehicle instead of test compound.
(In general: Calcium flux is commonly read through the fluorescence of an indicator in the cells.)
For orientation: pIC50 means the negative decadic logarithm of the IC50, by convention in mol/L. As for `COc1cc(Cn2ncc(NC(=O)Cc3ccc(OCC4(C)COC4)cc3)n2)ccc1F` [Example 112, N-[2-(4-Fluoro-3-methoxy-benzyl)-2H-[1,2,3]triazol-4-yl]-2-[4-(3-methyl-oxetan-3-ylmethoxy)-phenyl]-acetamide], the pIC50 is 6.72.
The figure for `O=C(Cc1ccc(N2CCCC2)nc1)Nc1cnn(Cc2ccc(OC(F)F)c(F)c2)n1` [Example 183, N-[2-(4-Difluoromethoxy-3-fluoro-benzyl)-2H-[1,2,3]triazol-4-yl]-2-(6-pyrrolidin-1-yl-pyridin-3-yl)-acetamide] is 7.59; for `Cc1ccc(Cn2ncc(NC(=O)Cc3ccc4c(cnn4C)c3)n2)cc1C#N` [Example 204, N-[2-(3-Cyano-4-methyl-benzyl)-2H-[1,2,3]triazol-4-yl]-2-(1-methyl-1H-indazol-5-yl)-acetamide] it is 6.55; for `Cc1cc(Cn2ncc(NC(=O)Cc3ccc(N4CCCC4)nc3)n2)ccc1C#N` [Example 170, N-[2-(4-Cyano-3-methyl-benzyl)-2H-[1,2,3]triazol-4-yl]-2-(6-pyrrolidin-1-yl-pyridin-3-yl)-acetamide] it is 7.30.
Next, `COc1cc(Cn2ncc(NC(=O)Cc3ccc(C(C)(C)C)cc3)n2)cc(F)c1F` [Example 218, 2-(4-tert-Butyl-phenyl)-N-[2-(3,4-difluoro-5-methoxy-benzyl)-2H-[1,2,3]triazol-4-yl]-acetamide]: 6.23.
`CC1(c2ccc(CC(=O)Nc3cnn(Cc4ccc(F)c(F)c4)n3)cc2)COC1` [Example 22, N-[2-(3,4-Difluoro-benzyl)-2H-[1,2,3]triazol-4-yl]-2-[4-(3-methyl-oxetan-3-yl)-phenyl]-acetamide]: the pIC50 was 7.82.
Next, `COc1ccc(Cn2ncc(NC(=O)Cc3ccc(C(C)(C)C)cc3)n2)cc1C#N` [Example 202, 2-(4-tert-Butyl-phenyl)-N-[2-(3-cyano-4-methoxy-benzyl)-2H-[1,2,3]triazol-4-yl]-acetamide]: 6.49.
Next, `O=C(Cc1ccc2[nH]ccc2c1)Nc1cnn(Cc2ccc(F)c(F)c2)n1` [Example 15, N-[2-(3,4-Difluoro-benzyl)-2H-[1,2,3]triazol-4-yl]-2-(1H-indol-5-yl)-acetamide]: 7.40.
The figure for `COc1c(F)cc(Cn2ncc(NC(=O)Cc3ccc(C4(C)COC4)cc3)n2)cc1F` [Example 78, N-[2-(3,5-Difluoro-4-methoxy-benzyl)-2H-[1,2,3]triazol-4-yl]-2-[4-(3-methyl-oxetan-3-yl)-phenyl]-acetamide] is 7.31; for `COc1ccc(Cn2ncc(NC(=O)Cc3ccc(C4(C)COC4)cc3)n2)cc1` [Example 60, N-[2-(4-Methoxy-benzyl)-2H-[1,2,3]triazol-4-yl]-2-[4-(3-methyl-oxetan-3-yl)-phenyl]-acetamide] it is 6.92; for `CC(C)(C)c1ccc(CC(=O)Nc2cnn(Cc3ccc(C#N)cn3)n2)cc1` [Example 244, 2-(4-tert-Butyl-phenyl)-N-[2-(5-cyano-pyridin-2-ylmethyl)-2H-[1,2,3]triazol-4-yl]-acetamide] it is 7.47.
Turning to `CC1(c2ccc(CC(=O)Nc3cnn(Cc4ccc(C#N)c(F)c4)n3)cc2)COC1` [Example 72, N-[2-(4-Cyano-3-fluoro-benzyl)-2H-[1,2,3]triazol-4-yl]-2-[4-(3-methyl-oxetan-3-yl)-phenyl]-acetamide], the pIC50 was 7.13.
The figure for `COc1cc(Cn2ncc(NC(=O)Cc3ccc(OC4CC(F)(F)C4)cc3)n2)ccc1F` [Example 114] is 7.14; for `N#Cc1ccc(Cn2ncc(NC(=O)Cc3ccc(C4(C(F)(F)F)CC4)cc3)n2)nc1` [Example 245, N-[2-(5-Cyano-pyridin-2-ylmethyl)-2H-[1,2,3]triazol-4-yl]-2-[4-(1-trifluoromethyl-cyclopropyl)-phenyl]-acetamide] it is 6.72.
Regarding `CCn1ncc2cc(CC(=O)Nc3cnn(Cc4ccc(C#N)cc4)n3)ccc21` [Example 103, N-[2-(4-Cyano-benzyl)-2H-[1,2,3]triazol-4-yl]-2-(1-ethyl-1H-indazol-5-yl)-acetamide], the pIC50 is 7.13.
The figure for `Cc1nn(C)c2ccc(CC(=O)Nc3cnn(Cc4ccc(C#N)c(F)c4)n3)cc12` [Example 177, N-[2-(4-Cyano-3-fluoro-benzyl)-2H-[1,2,3]triazol-4-yl]-2-(1,3-dimethyl-1H-indazol-5-yl)-acetamide] is 7.48; for `Cn1ncc2cc(CC(=O)Nc3cnn(Cc4ccc(F)c(F)c4)n3)cnc21` [Example 38, N-[2-(3,4-Difluoro-benzyl)-2H-[1,2,3]triazol-4-yl]-2-(1-methyl-1H-pyrazolo[3,4-b]pyridin-5-yl)-acetamide] it is 6.24; for `COc1ccc(Cn2ncc(NC(=O)Cc3ccc4c(c3)c(C)cn4C)n2)cc1F` [Example 129, 2-(1,3-Dimethyl-1H-indol-5-yl)-N-[2-(3-fluoro-4-methoxy-benzyl)-2H-[1,2,3]triazol-4-yl]-acetamide] it is 7.32.
Next, `N#Cc1ccc(Cn2ncc(NC(=O)Cc3ccc(OC4CC(F)(F)C4)cc3)n2)cc1` [Example 196, N-[2-(4-Cyano-benzyl)-2H-[1,2,3]triazol-4-yl]-2-[4-(3,3-difluoro-cyclobutoxy)-phenyl]-acetamide]: 7.39; `COc1ccc(Cn2ncc(NC(=O)Cc3ccc(C4(C(F)(F)F)CC4)cc3)n2)cc1F` [Example 124, N-[2-(3-Fluoro-4-methoxy-benzyl)-2H-[1,2,3]triazol-4-yl]-2-[4-(1-trifluoromethyl-cyclopropyl)-phenyl]-acetamide]: 6.60; `COc1cc(Cn2ncc(NC(=O)Cc3ccc(N4CCCC4)nc3)n2)ccc1F` [Example 155, N-[2-(4-Fluoro-3-methoxy-benzyl)-2H-[1,2,3]triazol-4-yl]-2-(6-pyrrolidin-1-yl-pyridin-3-yl)-acetamide]: 6.85.
The figure for `CC(C)c1ccc(CC(=O)Nc2cnn(Cc3ccc(F)c(F)c3)n2)cc1` [Example 5, N-[2-(3,4-Difluoro-benzyl)-2H-[1,2,3]triazol-4-yl]-2-(4-isopropyl-phenyl)-acetamide] is 7.52; for `CCCCn1ncc2cc(CC(=O)Nc3cnn(Cc4ccc(F)c(F)c4)n3)ccc21` [Example 30, 2-(1-Butyl-1H-indazol-5-yl)-N-[2-(3,4-difluoro-benzyl)-2H-[1,2,3]triazol-4-yl]-acetamide] it is 7.77; for `Cc1cc(Cn2ncc(NC(=O)Cc3ccc4cnn(C)c4c3)n2)ccc1C#N` [Example 163, N-[2-(4-Cyano-3-methyl-benzyl)-2H-[1,2,3]triazol-4-yl]-2-(1-methyl-1H-indazol-6-yl)-acetamide] it is 6.48.
With `Cc1ccc(Cn2ncc(NC(=O)Cc3ccc(C4(F)COC4)cc3)n2)cc1C#N` [Example 201, N-[2-(3-Cyano-4-methyl-benzyl)-2H-[1,2,3]triazol-4-yl]-2-[4-(3-fluoro-oxetan-3-yl)-phenyl]-acetamide], the pIC50 is 6.51.
Next, `Cc1ccc(Cn2ncc(NC(=O)Cc3ccc(N4CCC(F)(F)C4)nc3)n2)cc1C#N` [Example 211, N-[2-(3-Cyano-4-methyl-benzyl)-2H-[1,2,3]triazol-4-yl]-2-[6-(3,3-difluoro-pyrrolidin-1-yl)-pyridin-3-yl]-acetamide]: 7.09.
Next, `COc1c(F)cc(Cn2ncc(NC(=O)Cc3ccc(C(C)C)cc3)n2)cc1F` [Example 80, N-[2-(3,5-Difluoro-4-methoxy-benzyl)-2H-[1,2,3]triazol-4-yl]-2-(4-isopropyl-phenyl)-acetamide]: 7.54; `CC1(COc2ccc(CC(=O)Nc3cnn(Cc4ccc(C#N)cc4)n3)cc2)CC(F)(F)C1` [Example 197, N-[2-(4-Cyano-benzyl)-2H-[1,2,3]triazol-4-yl]-2-[4-(3,3-difluoro-1-methyl-cyclobutylmethoxy)-phenyl]-acetamide]: 7.28.
